ChEMBL document CHEMBL1128901, “C-Attached aminoalkylindoles: potent cannabinoid mimetics” (Bioorg Med Chem Lett, 1996)
pIC50: −log10 of the molar value.

Columns and labels:
Cannabinoid receptor = Cannabinoid receptor (Rattus norvegicus, UniProt Q9QZN9+P20272); assay: Compound was evaluated for the inhibition of [3H]WIN-55212-2 binding in rat cerebellum membranes; assay type: cell membranes, Membrane
Mus musculus = organism: Mus musculus; assay: In vitro inhibition of electrically induced contractions in isolated mouse vas deferens (MVD) preparations.; assay type: functional
[1] = biological target: T1, Cannabinoid receptor (Rattus norvegicus) (UniProt Q9QZN9+P20272); assay: Compound was evaluated for the inhibition of [3H]WIN-55212-2 binding in rat cerebellum membranes at the concentration 1000 nM; assay type: cell membranes; settings: Membrane
[2] = biological target: T1, Cannabinoid receptor (Rattus norvegicus); assay: Compound was evaluated for the inhibition of [3H]WIN-55212-2 binding in rat cerebellum membranes at the concentration 3000 nM; assay type: cell membranes; settings: Membrane

T1 sequence (P20272 whole entry, looked up): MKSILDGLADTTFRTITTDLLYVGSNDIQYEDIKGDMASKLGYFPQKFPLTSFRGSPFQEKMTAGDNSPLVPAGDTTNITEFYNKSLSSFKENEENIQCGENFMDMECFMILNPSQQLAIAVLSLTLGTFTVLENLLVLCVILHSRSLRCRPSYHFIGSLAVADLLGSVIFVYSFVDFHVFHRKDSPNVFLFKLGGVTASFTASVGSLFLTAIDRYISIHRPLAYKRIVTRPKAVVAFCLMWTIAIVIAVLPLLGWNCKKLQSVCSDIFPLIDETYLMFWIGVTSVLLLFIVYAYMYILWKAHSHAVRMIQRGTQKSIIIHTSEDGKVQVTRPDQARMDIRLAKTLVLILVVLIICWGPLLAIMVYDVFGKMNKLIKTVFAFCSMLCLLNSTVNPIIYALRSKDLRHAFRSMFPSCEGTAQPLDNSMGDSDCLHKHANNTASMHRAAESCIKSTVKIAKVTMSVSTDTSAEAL
T1 sequence (Q9QZN9 whole entry, looked up): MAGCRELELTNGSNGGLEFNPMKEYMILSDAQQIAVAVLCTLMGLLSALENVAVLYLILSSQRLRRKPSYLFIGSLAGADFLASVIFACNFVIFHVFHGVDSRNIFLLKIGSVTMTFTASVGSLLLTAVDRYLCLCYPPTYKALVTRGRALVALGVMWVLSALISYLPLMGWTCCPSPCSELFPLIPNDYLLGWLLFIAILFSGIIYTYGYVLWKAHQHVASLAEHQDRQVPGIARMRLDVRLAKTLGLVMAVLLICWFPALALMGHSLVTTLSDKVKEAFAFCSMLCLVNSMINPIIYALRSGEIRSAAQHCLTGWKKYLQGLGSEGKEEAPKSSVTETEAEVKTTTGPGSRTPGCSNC

| SMILES | IC50 (Cannabinoid receptor) | pIC50 (Mus musculus) | further results |
| --- | --- | --- | --- |
| O=C(c1cccc2ccccc12)c1cn(CC2CCCCN2)c2ccccc12 (centres undefined) | 6.6 nM | 8.52 |  |
| COc1ccc(C(=O)c2c(C)n(C[C@@H]3CCCN3C)c3ccccc23)cc1 | 497 nM | 7.43 |  |
| COc1ccc(C(=O)c2c(C)n(C[C@H]3CCCN3C)c3ccccc23)cc1 |  |  | inhibition [1]: 7%; Inhibition (Mus musculus): 80% |
| Cc1c(C(=O)c2cccc3ccccc23)c2ccccc2n1CC1CCCCN1C (centres undefined) | 5.4 nM | 8.92 |  |
| CN1CCOCC1Cn1cc(C(=O)c2cccc3ccccc23)c2ccccc21 (centres undefined) | 3 nM | 9.40 |  |
| COc1ccc(C(=O)c2c(C)n(C3CCCN(C)C3)c3ccccc23)cc1 (centres undefined) |  |  | Inhibition (Mus musculus): 80% |
| COc1ccc(C(=O)c2c(C)n(CC3CN(C)CCN3C)c3ccccc23)cc1 (centres undefined) |  | 5.85 | inhibition [1]: -8% |
| COc1ccc(C(=O)c2c(C)n(C3CCN(C)CC3)c3ccccc23)cc1 |  | < 5.00 |  |
| O=C(c1cccc2ccccc12)c1cn(CCN2CCOCC2)c2ccccc12 | 7.8 nM |  |  |
| COc1ccc(C(=O)c2c(C)n(CC3CCCN3C)c3ccccc23)cc1 (centres undefined) |  | 7.20 | inhibition [1]: 53% |
| CN1CCCCC1Cn1cc(C(=O)c2cccc3ccccc23)c2ccccc21 (centres undefined) | 1.22 nM | 9.33 |  |
| COc1ccc(C(=O)c2c(C)n(CC3CCCN(C)C3)c3ccccc23)cc1 (centres undefined) |  | < 5.00 |  |
| COc1ccc(C(=O)c2c(C)n(CC3CCCN3)c3ccccc23)cc1 (centres undefined) |  | 6.66 |  |
| COc1ccc(C(=O)c2c(C)n(CC3CN(C)CCO3)c3ccccc23)cc1 (centres undefined) |  | < 5.00 |  |
| COc1ccc(C(=O)c2c(C)n(CC3CSCCN3C)c3ccccc23)cc1 (centres undefined) |  | 5.94 | inhibition [1]: 40% |
| COc1ccc(C(=O)c2c(C)n(CC3CCCCN3C)c3ccccc23)cc1 (centres undefined) | 699 nM | 6.87 |  |
| Cc1c(C(=O)c2cccc3ccccc23)c2ccccc2n1CC1CCCN1C (centres undefined) | 6.5 nM | 8.62 |  |
| CN1CCN(C)C(Cn2cc(C(=O)c3cccc4ccccc34)c3ccccc32)C1 (centres undefined) | 51 nM | 7.82 |  |
| COc1ccc(C(=O)c2cn(CC3CCCN3C)c3ccccc23)cc1 (centres undefined) |  | 8.10 |  |
| COc1ccc(C(=O)c2c(C)n(CC3COCCN3C)c3ccccc23)cc1 (centres undefined) |  | 6.68 | inhibition [2]: 43% |
| COc1ccc(C(=O)c2c(C)n(CCC3CCCCN3C)c3ccccc23)cc1 (centres undefined) |  | < 5.00 |  |
| COc1ccc(C(=O)c2c(C)n(CC3C[S+]([O-])CCN3C)c3ccccc23)cc1 (centres undefined) |  | < 5.00 | inhibition [1]: -10% |
| CCN1CCCC1Cn1c(C)c(C(=O)c2ccc(OC)cc2)c2ccccc21 (centres undefined) |  | < 5.00 |  |
| COc1ccc(C(=O)c2cn(CC3CCCCN3C)c3ccccc23)cc1 (centres undefined) | 9.7 nM | 8.59 |  |
